Experimental data taken from PubChem BioAssay AID743340 (Broad Institute, 2014).
Results filed as inconclusive are left out. Calls of active or inactive are those of the source.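 The calls were made as follows: active = compounds whose fitted AC50 for signal loss is at most twice the top valid dose tested; inconclusive = flat curve with 30 to 70% inhibition, or poor fit; inactive = the rest.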

Biological target: Leucyl-cystinyl aminopeptidase (Mus musculus) (UniProt Q8C129)
Assay: inhibition of mouse IRAP aminopeptidase activity – biochemical, Leu-AMC fluorescence, cherry-picked samples, set 2, selectivity assay for ERAP1 modulator project, dose response (AID 743340)
Conditions: purified IRAP, Leu-AMC cleavage fluorescence, 1 h

Chain of Leucyl-cystinyl aminopeptidase (Mus musculus) (Q8C129 whole entry, looked up): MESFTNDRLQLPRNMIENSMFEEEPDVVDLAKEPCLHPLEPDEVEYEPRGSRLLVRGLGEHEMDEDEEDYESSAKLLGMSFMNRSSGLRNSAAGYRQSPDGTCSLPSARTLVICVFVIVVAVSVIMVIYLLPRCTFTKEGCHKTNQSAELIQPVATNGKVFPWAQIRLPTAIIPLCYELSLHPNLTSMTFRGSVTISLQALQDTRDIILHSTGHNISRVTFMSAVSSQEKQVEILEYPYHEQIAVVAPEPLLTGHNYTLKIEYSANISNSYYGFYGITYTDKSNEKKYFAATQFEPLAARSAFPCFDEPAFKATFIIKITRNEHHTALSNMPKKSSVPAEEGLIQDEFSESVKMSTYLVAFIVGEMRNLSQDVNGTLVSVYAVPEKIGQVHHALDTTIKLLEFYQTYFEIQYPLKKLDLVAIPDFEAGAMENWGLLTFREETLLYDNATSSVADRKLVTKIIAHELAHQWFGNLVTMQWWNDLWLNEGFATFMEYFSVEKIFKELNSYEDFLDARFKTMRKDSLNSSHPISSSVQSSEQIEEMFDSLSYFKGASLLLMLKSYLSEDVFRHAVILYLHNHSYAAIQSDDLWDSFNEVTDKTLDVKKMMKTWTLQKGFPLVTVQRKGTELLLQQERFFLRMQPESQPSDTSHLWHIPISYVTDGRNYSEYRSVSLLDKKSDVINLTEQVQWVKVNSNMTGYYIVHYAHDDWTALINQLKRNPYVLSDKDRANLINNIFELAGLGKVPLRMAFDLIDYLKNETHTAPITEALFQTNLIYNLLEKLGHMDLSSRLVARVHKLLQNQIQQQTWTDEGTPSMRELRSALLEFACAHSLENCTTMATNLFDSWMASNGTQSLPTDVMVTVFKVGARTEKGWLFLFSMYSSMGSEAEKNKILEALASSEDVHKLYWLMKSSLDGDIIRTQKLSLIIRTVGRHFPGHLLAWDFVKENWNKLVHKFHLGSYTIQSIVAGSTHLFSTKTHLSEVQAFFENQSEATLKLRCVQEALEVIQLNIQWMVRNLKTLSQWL

activity change, negative = inhibition (at 11 µM (top of the series))	Compound	further results
inactive	O=C(C[C@H]1CC[C@@H]2[C@H](COC[C@@H](O)CN2C(=O)Nc2cccc(Cl)c2)O1)N1CCCCC1	
inactive	C[C@@H]1CCCCO[C@@H](CN(C)Cc2ccccc2)[C@H](C)CN([C@H](C)CO)C(=O)c2cc(NS(=O)(=O)c3cccs3)ccc2O1	
inactive	CCCN(C)C[C@@H]1OCCCC[C@@H](C)Oc2ccc(NS(=O)(=O)c3ccccc3)cc2C(=O)N([C@H](C)CO)C[C@@H]1C	
inactive	COc1ccc(CN(C)C[C@@H]2OCCCC[C@H](C)Oc3ccc(NS(=O)(=O)c4cccs4)cc3C(=O)N([C@@H](C)CO)C[C@@H]2C)cc1	
inactive	Cc1noc(C)c1NC(=O)N(C)C[C@@H]1Oc2c(NC(=O)Nc3ccccc3)cccc2C(=O)N([C@H](C)CO)C[C@@H]1C	
inactive	COc1ccc(NC(=O)Nc2ccc3c(c2)C(=O)N([C@@H](C)CO)C[C@@H](C)[C@H](CN(C)Cc2ccc(C(=O)O)cc2)OCCCC[C@H](C)O3)cc1	
inactive	NC(=NCCc1c[nH]c2ccccc12)NS(=O)(=O)c1cc(F)ccc1F	
inactive	C[C@@H]1CCCCO[C@@H](CN(C)Cc2ccc3c(c2)OCO3)[C@@H](C)CN([C@H](C)CO)C(=O)c2cc(NS(=O)(=O)c3cccs3)ccc2O1	
	Cc1noc(C)c1S(=O)(=O)N(C)C[C@@H]1OCCCC[C@@H](C)Oc2ccc(NS(=O)(=O)c3cccs3)cc2C(=O)N([C@@H](C)CO)C[C@@H]1C	activity change, negative = inhibition (at 10 µM (top of the series)): inactive
inactive	C[C@@H]1CCCCO[C@H](CN(C)C)[C@H](C)CN([C@H](C)CO)C(=O)c2cc(NS(=O)(=O)c3ccc(Cl)cc3)ccc2O1	
inactive	COc1ccc(CN(C)C[C@@H]2OCCCC[C@@H](C)Oc3ccc(NS(=O)(=O)c4cccs4)cc3C(=O)N([C@H](C)CO)C[C@H]2C)cc1	
	CCCN(C)C[C@@H]1OCCCC[C@@H](C)Oc2ccc(NS(=O)(=O)c3ccc(OC)cc3)cc2C(=O)N([C@H](C)CO)C[C@@H]1C	AC50: 11.2 µM
inactive	Cc1ccc(S(=O)(=O)Nc2ccc3c(c2)C(=O)N([C@@H](C)CO)C[C@H](C)[C@H](CN(C)C)OCCCC[C@@H](C)O3)cc1	
	O=C(O)c1ccccc1NS(=O)(=O)c1cccc(-n2sc3ccccc3c2=O)c1	AC50: > 22 µM (inactive)
inactive	O=C(CSc1cn[nH]n1)Nc1cccc(C(=O)O)c1	
inactive	C[C@H](CO)N1C[C@H](C)[C@H](CN(C)CC2CCCCC2)Oc2c(NC(=O)Nc3ccc4c(c3)OCO4)cccc2C1=O	
inactive	CCC(=O)N(C)C[C@@H]1Oc2ncc(C#Cc3ccncc3)cc2C(=O)N([C@@H](C)CO)C[C@@H]1C	
inactive	COc1ccc(CN(C)C[C@H]2OCCCC[C@@H](C)Oc3ccc(NS(=O)(=O)c4cccs4)cc3C(=O)N([C@@H](C)CO)C[C@@H]2C)cc1	
	C[C@@H]1CCCCO[C@@H](CN(C)Cc2ccccc2)[C@@H](C)CN([C@H](C)CO)C(=O)c2cc(NS(=O)(=O)c3cccs3)ccc2O1	activity change, negative = inhibition (at 5.6 µM (top of the series)): inactive
inactive	C[C@@H]1CCCCO[C@@H](CN(C)CC2CC2)[C@@H](C)CN([C@H](C)CO)C(=O)c2cc(NS(=O)(=O)c3ccc(Cl)cc3)ccc2O1	

activity change, negative = inhibition (at 11 µM (top of the series))	Compound	further results
inactive	CCCNC(=O)C[C@H]1CC[C@@H]2[C@H](COC[C@H](O)CN2C(=O)Nc2cccc(Cl)c2)O1	
inactive	C[C@H](CO)N1C[C@H](C)[C@H](CN(C)Cc2ccncc2)Oc2c(NC(=O)Nc3ccc(C(F)(F)F)cc3)cccc2C1=O	
	C[C@@H]1CCCCO[C@@H](CN(C)Cc2ccc3c(c2)OCO3)[C@@H](C)CN([C@@H](C)CO)C(=O)c2cc(NS(=O)(=O)c3ccccc3)ccc2O1	activity change, negative = inhibition (at 5.6 µM (top of the series)): inactive
inactive	COc1ccc(NC(=O)Nc2cccc3c2O[C@H](CN(C)Cc2ccc(C(=O)O)cc2)[C@H](C)CN([C@H](C)CO)C3=O)cc1	
	COc1ccc(S(=O)(=O)N(C)C[C@@H]2Oc3ncccc3C(=O)N([C@H](C)CO)C[C@@H]2C)cc1	activity change, negative = inhibition (at 5.6 µM (top of the series)): inactive
inactive	Cc1noc(C)c1NC(=O)N(C)C[C@@H]1Oc2c(NC(=O)Nc3ccc(F)cc3)cccc2C(=O)N([C@H](C)CO)C[C@@H]1C	
inactive	C[C@@H]1CN([C@H](C)CO)C(=O)c2cccc(NC(=O)Nc3ccccc3)c2O[C@@H]1CN(C)Cc1ccc(C(=O)O)cc1	
inactive	C[C@@H]1CCCCO[C@@H](CN(C)C)[C@@H](C)CN([C@@H](C)CO)C(=O)c2cc(NS(=O)(=O)c3ccc(F)cc3)ccc2O1	
inactive	Cc1noc(C)c1NC(=O)Nc1ccc2c(c1)C(=O)N([C@H](C)CO)C[C@@H](C)[C@@H](CN(C)Cc1ccc(C(F)(F)F)cc1)OCCCC[C@@H](C)O2	
inactive	CO[C@@H]1CN(C)C(=O)c2ccc(NC(=O)Nc3cccc(Cl)c3)cc2OC[C@@H](C)NC[C@H]1C	
inactive	COc1ccc(CN(C)C[C@@H]2OCCCC[C@H](C)Oc3ccc(NS(=O)(=O)c4cccs4)cc3C(=O)N([C@H](C)CO)C[C@@H]2C)cc1	
inactive	C[C@@H]1CCCCO[C@@H](CN(C)Cc2ccc(C(=O)O)cc2)[C@H](C)CN([C@@H](C)CO)C(=O)c2cc(NS(=O)(=O)c3ccc(Cl)cc3)ccc2O1	
inactive	C[C@H]1CN([C@@H](C)CO)C(=O)c2cccc(NC(=O)Nc3ccc(F)cc3)c2O[C@@H]1CN(C)C(=O)Nc1ccc2c(c1)OCO2	
inactive	COc1ccc2c3c([nH]c2c1)[C@H](CO)N(Cc1cc(F)ccc1F)CC31CN(C)C1	
inactive	Cc1noc(C)c1S(=O)(=O)Nc1ccc2c(c1)C(=O)N([C@H](C)CO)C[C@@H](C)[C@@H](CN(C)CC1CCCCC1)OCCCC[C@@H](C)O2	
inactive	COC(=O)[C@H]1[C@H](CO)[C@H]2Cn3c(ccc(-c4ccncc4)c3=O)[C@H]2N1Cc1ccccc1F	
inactive	COc1cccc(S(=O)(=O)N(C)C[C@@H]2Oc3ncccc3C(=O)N([C@H](C)CO)C[C@@H]2C)c1	
	C[C@@H]1CCCCO[C@@H](CN(C)C)[C@H](C)CN([C@@H](C)CO)C(=O)c2cc(NC(=O)Nc3ccc(C(F)(F)F)cc3)ccc2O1	activity change, negative = inhibition (at 10 µM (top of the series)): inactive
inactive	C[C@@H]1CCCCO[C@@H](CN(C)CC2CCCCC2)[C@H](C)CN([C@@H](C)CO)C(=O)c2cc(NC(=O)Nc3ccccc3)ccc2O1	
inactive	COc1ccc(NC(=O)Nc2ccc3c(c2)C(=O)N([C@H](C)CO)C[C@@H](C)[C@H](CN(C)Cc2ccc(C(=O)O)cc2)OCCCC[C@@H](C)O3)cc1	

activity change, negative = inhibition (at 11 µM (top of the series))	Compound	further results
	CCCN(C)C[C@@H]1OCCCC[C@@H](C)Oc2ccc(NS(=O)(=O)c3ccc(C)cc3)cc2C(=O)N([C@H](C)CO)C[C@@H]1C	AC50: > 20 µM (inactive)
inactive	C[C@@H]1CN([C@H](C)CO)C(=O)c2cc(NC(=O)Nc3ccc(F)cc3)ccc2O[C@H]1CN(C)Cc1ccc(C(=O)O)cc1	
inactive	C[C@@H]1CCCCO[C@@H](CN(C)C)[C@@H](C)CN([C@@H](C)CO)C(=O)c2cc(NS(=O)(=O)c3ccc(Cl)cc3)ccc2O1	
	CCCN(C)C[C@@H]1OCCCC[C@@H](C)Oc2ccc(NS(=O)(=O)c3c(C)noc3C)cc2C(=O)N([C@H](C)CO)C[C@@H]1C	AC50: > 20 µM (inactive)
inactive	Cc1cc(=O)oc2c(CN3CCN(C)CC3)c(O)c(Cl)cc12	
inactive	O=C(O)c1cccc(NC(=O)c2ccccc2NC(=O)c2cccc([N+](=O)[O-])c2)c1	
inactive	COc1ccc(CN(C)C[C@@H]2OCCCC[C@@H](C)Oc3ccc(NS(=O)(=O)c4cccs4)cc3C(=O)N([C@@H](C)CO)C[C@H]2C)cc1	
inactive	CCC(=O)N(C)C[C@H]1Oc2ncc(C#Cc3ccncc3)cc2C(=O)N([C@H](C)CO)C[C@H]1C	
	CCCN(C)C[C@@H]1OCCCC[C@@H](C)Oc2ccc(NS(=O)(=O)c3ccc(C)cc3)cc2C(=O)N([C@@H](C)CO)C[C@@H]1C	activity change, negative = inhibition (at 5 µM (top of the series)): inactive
inactive	CCCN(C)C[C@@H]1OCCCC[C@@H](C)Oc2ccc(NS(=O)(=O)c3ccc(F)cc3)cc2C(=O)N([C@H](C)CO)C[C@@H]1C	
inactive	CC(=O)N1CCN(C(=O)C2(NC(=O)Nc3ccc(C)cc3)CCCCC2)CC1	
inactive	C[C@H]1CN([C@@H](C)CO)C(=O)c2cccc(NC(=O)Nc3ccc4c(c3)OCO4)c2O[C@@H]1CN(C)CC1CC1	
inactive	COc1ccc(C(=O)O)cc1S(=O)(=O)Nc1cc(C(F)(F)F)ccc1N1CCCCC1	
inactive	C[C@H]1CN([C@@H](C)CO)C(=O)c2cccc(NC(=O)Nc3ccc(C(F)(F)F)cc3)c2O[C@@H]1CN(C)C	
inactive	COc1ccc(NC(=O)Nc2ccc3c(c2)C(=O)N([C@H](C)CO)C[C@@H](C)[C@@H](CN(C)Cc2ccc(C(=O)O)cc2)OCCCC[C@@H](C)O3)cc1	
inactive	COc1ccc(CN(C)C[C@H]2OCCCC[C@@H](C)Oc3ccc(NS(=O)(=O)c4cccs4)cc3C(=O)N([C@@H](C)CO)C[C@H]2C)cc1	
inactive	C[C@@H]1CCCCO[C@H](CN(C)Cc2ccc(C(=O)O)cc2)[C@H](C)CN([C@@H](C)CO)C(=O)c2cc(NC(=O)Nc3ccc(C(F)(F)F)cc3)ccc2O1	
	CC(C)[C@@H](C(=O)N[C@@H](CCc1ccc(O)cc1)C(=O)O)N(C)C(=O)[C@H](CO)NC(=O)[C@@H](O)[C@H](N)CCCCCCCCl	AC50: 0.0449 µM
inactive	CNC[C@H]1OCCCC[C@@H](C)Oc2ccc(NS(=O)(=O)c3ccc(C)cc3)cc2C(=O)N([C@@H](C)CO)C[C@H]1C	
